PubChem BioAssay AID449750 (Broad Institute, 2010)
Where “and” joins values, the source holds several entries; their conditions need not be identical. Equal entries are not always repeated. Calls of active or inactive are those of the source. No rule for the calls is given here.

Experiment: non-covalent RecA intein splicing inhibitors, dose response, biochemical, cell-free, fluorescence, secondary screen (AID 449750)

## CC(=O)C12CC(C)=C(C)CC1CC1C3CCC4=CC(=O)CCC4(C)C3CCC12C (stereo not given)
  AC50: 4.58 µM

## Cc1[nH]n(-c2ccccc2)c(=O)c1/C=C1\C=NN=C1c1ccccc1
  AC50: 17 µM

## Cc1ccc(-c2cc(NC(=O)CCl)n(-c3ccccc3)n2)cc1
  AC50: 7.65 µM

## CS(=O)(=O)C1=NSC2=NC(=O)/C(=C\c3ccc(OC(=O)c4ccco4)cc3)C(=N)N21
  AC50: > 38 µM (inactive)

## O=C1CC(c2ccccc2)=NN1c1ccc([N+](=O)[O-])cc1
  AC50: 7.43 µM

## COc1ccc(C(O)c2nccc3cc(OC)c(OC)cc23)cc1OC (stereo not given)
  AC50: > 38 µM (inactive)

## CC(C)(C)C(=O)Nc1ccc(N=Nc2ccccc2)cc1
  AC50: 7.69 µM

## CC1(C)N=C(SCC(=O)Nc2ccc(Cl)cc2)C(c2ccc(Cl)cc2)=N1
  AC50: 29.8 µM

## CNC(=O)c1nnsc1S(=O)(=O)c1ccc(Cl)cc1
  AC50: > 38 µM (inactive)

## Cn1cnc([N+](=O)[O-])c1Oc1ccc2ccccc2c1
  AC50: > 38 µM (inactive)

## O=c1[nH]c(Nc2ccccc2)cc2ccccc12
  AC50: 1.68 µM

## COc1ccccc1Nc1cc2cc(Br)ccc2c(=O)[nH]1
  AC50: 6.07 µM

## CC(C)C(=O)N1CCN(c2nc(-c3ccccc3)c3c(c2C#N)CCCC3)CC1
  AC50: 9.83 µM

## O=[N+]([O-])c1c(NCc2ccco2)ccc2nonc12
  AC50: > 38 µM (inactive)

## COCc1[nH]nc2c1C(c1ccc(OC)cc1)C(C#N)=C(N)O2 (stereo not given)
  AC50: 32.2 µM

## Cc1ccccc1CS(=O)(=O)c1nnc([C@H](CC(C)C)NC(=O)OC(C)(C)C)o1
  AC50: > 38 µM (inactive)

## COC(=O)C1CN(C#N)N(c2ccc(Cl)cc2)C12c1ccccc1-c1ccccc12 (stereo not given)
  AC50: 10.7 µM

## CCOc1ccc(CN2CCN(CC3=Cc4cccc(OC)c4OC3)CC2CCO)cc1 (stereo not given)
  AC50: > 38 µM (inactive)

## COc1ccc(-c2nnc(Sc3nc4ccccc4o3)c3ccccc23)cc1
  AC50: 18.8 µM

## O=C1C(Cl)=C(Nc2ccc(O)cc2)C(=O)c2ccccc21
  AC50: 2.7 µM

## CC(C)(C)c1ccc(/C=C(\c2nc3ccccc3[nH]2)S(=O)(=O)c2ccccc2)cc1
  AC50: 39.1 µM

## COc1cc(C2C(C#N)=C(N)Oc3n[nH]c(-c4cccnc4)c32)cc(Br)c1O (stereo not given)
  AC50: 4.01 µM

## CCOC(=O)CSc1n[nH]c(NC(=O)c2cccc(C(F)(F)F)c2)n1
  AC50: > 38 µM (inactive)

## O=C(Nc1ccc(Cl)c(Cl)c1)Nc1ccccc1NS(=O)(=O)c1cccs1
  AC50: 30.3 µM

## CC1=NNC(=O)C1C(c1cccc(O)c1)C(C#N)C#N (stereo not given)
  AC50: > 38 µM (inactive)

## N#CC1=C(N)Oc2n[nH]c(-c3ccc(F)cc3)c2C1c1cccc(OC(=O)N2CCOCC2)c1 (stereo not given)
  AC50: 26.2 µM

## Cc1ccc(Cn2ncc(Cl)c(Cl)c2=O)cc1
  AC50: 22 µM

## Nc1scc2c(C(=O)N/N=C/c3ccc(Cl)cc3)nn(-c3ccccc3)c(=O)c12
  AC50: 28.1 µM

## O=C(Cc1cc(=O)[nH][nH]1)N/N=C/c1c(Cl)cccc1Cl
  AC50: 16 µM and 23.9 µM

## O=C(CNC1=NCCC1)c1ccc(Cl)cc1
  AC50: > 38 µM (inactive)

## CCC(=O)Nc1c(C)nn(C(=O)CC)c1C
  AC50: > 38 µM (inactive)

## COc1cc(/C=C2/C(=O)N(c3cccc(Br)c3)N=C2C)cc(OC)c1O
  AC50: 9.46 µM

## Cc1nn(-c2ccccc2)c2c1C(c1ccco1)C(C#N)=C(N)O2 (stereo not given)
  AC50: 14 µM

## Cc1nc(COC(=O)c2cc(O)c3ccccc3c2O)cs1
  AC50: 15.1 µM

## Cc1ccc(S(=O)(=O)N[C@@H](CCCCN)C(=O)CCl)cc1
  AC50: > 38 µM (inactive)

## Cc1[nH]nc2c1C(c1cccc(OC(=O)N3CCOCC3)c1)C(C#N)=C(N)O2 (stereo not given)
  AC50: > 38 µM (inactive)

## O=c1cc(-c2ccc(Br)cc2)[nH][nH]1
  AC50: 13.4 µM

## CC1CC(=O)c2c(cc3c(-c4c(O)cc(O)c5c(O)c6c(cc45)OC(C)CC6=O)c(O)cc(O)c3c2O)O1 (stereo not given)
  AC50: 2.71 µM

## CCn1nc(C)c(C2C(C#N)=C(N)Oc3n[nH]c(C)c32)c1C (stereo not given)
  AC50: > 38 µM (inactive)

## CC(C)(C)c1csc(Sc2ccc([N+](=O)[O-])cn2)n1
  AC50: 14.2 µM

## Nc1c(-c2ccccc2)c(CSc2nc3ccccc3[nH]2)nn1-c1cccc(Cl)c1
  AC50: > 38 µM (inactive)

## O=C1c2ccccc2-c2onc3ccc(N4CCCC4)c1c23
  AC50: > 38 µM (inactive)

## CS(=O)(=O)N1CCC(Oc2ccccc2C(=O)N2CCCCC2CO)CC1 (stereo not given)
  AC50: > 38 µM (inactive)

## Cn1cnc([N+](=O)[O-])c1Sc1nnc(-c2cccnc2)n1C
  AC50: > 38 µM (inactive)

## CCc1ccc(OCC(=O)N/N=C2\CC(=O)c3ccccc32)cc1
  AC50: 26.8 µM

## NS(=O)(=O)c1ccc(NC2=CC(=O)C(=O)c3ccccc32)cc1
  AC50: 7.47 µM

## COC(=O)c1nc(-c2ccc3c(n2)C(=O)C(N)=C(OC)C3=O)c(N)c(-c2ccc(OC)c(OC)c2O)c1C
  AC50: 0.763 µM

## Cc1nn(C(=O)c2cccnc2)c(C)c1Sc1ccc(Br)cc1
  AC50: 24.5 µM

## COc1ccc(/C=C(/C#N)C(=O)Nc2ccc(O)cc2)cc1C(=O)O
  AC50: > 38 µM (inactive)

## CCCCCCCCCCC[N+](C)(C)CC/C=C1/c2ccccc2Sc2ccc(Cl)cc21
  AC50: 4.77 µM

## CCOC(=O)c1nc(C)n(-c2ccc(Cl)cc2)n1
  AC50: > 38 µM (inactive)

## Cc1c(C)n(O)c2ccc3nonc3c12
  AC50: 26.8 µM

## O=c1c2c([nH]n1-c1ccccc1)CCSC2
  AC50: 36.5 µM

## COC(=O)c1cccc(N2C(=O)C(Cl)=C(N3CCOCC3)C2=O)c1
  AC50: > 38 µM (inactive)

## O=C(c1cc(F)c(F)cc1Cl)N1CCN(c2ccc([N+](=O)[O-])c3ncccc23)CC1
  AC50: > 38 µM (inactive)

## C/C(=C\c1ccco1)C1C(C#N)=C(N)Oc2n[nH]c(-c3ccccc3)c21 (stereo not given)
  AC50: 20.8 µM

## Cc1ccc(C(c2c(C)[nH][nH]c2=O)c2c(C)[nH][nH]c2=O)cc1[N+](=O)[O-]
  AC50: 32.1 µM

## CCCCCCCCCCn1c2c(c(=N)c3c1CCC3)CCC2
  AC50: > 38 µM (inactive)

## NC(=O)c1c(-c2cccs2)csc1N
  AC50: > 38 µM (inactive)

## CC1=NN(c2ccc(S(=O)(=O)O)cc2C)C(=O)C1
  AC50: 6.31 µM

## Cc1ccc(-n2nc(C)c(NC(=O)CCl)c2C)cc1C
  AC50: 16.1 µM

## COc1ccc(C(=O)NC(=S)NNC(=O)CCc2ccccc2)cc1
  AC50: > 38 µM (inactive)

## N#CC1=C(N)Oc2n[nH]c(-c3ccccc3)c2C1c1cccc(OC(=O)N2CCOCC2)c1 (stereo not given)
  AC50: 32.7 µM

## COc1cc(NCCCC(C)N)c2ncccc2c1 (stereo not given)
  AC50: 18.1 µM

## CC1=NN(c2cccc(Cl)c2)C(=O)C1
  AC50: 34.3 µM

## CC(C)c1[nH]nc2c1C(c1cccc(OC(=O)N3CCOCC3)c1)C(C#N)=C(N)O2 (stereo not given)
  AC50: > 38 µM (inactive)

## CCCCC(O)(CCCC)C(=O)NN(C(=O)CCl)c1ccccc1
  AC50: 6.32 µM

## CS(=O)(=O)c1nc(-c2ccccc2)cc(C(F)(F)F)n1
  AC50: > 38 µM (inactive)

## O=C(CCl)N1c2ccccc2OCC1c1ccccc1 (stereo not given)
  AC50: 12.7 µM

## CC/C(=C/c1sc2ccc(C)cc2[n+]1CCO)SC
  AC50: > 38 µM (inactive)

## CCOc1cc(/C=C2\C(=O)N(CCC#N)N=C2C)ccc1OCC(N)=O
  AC50: 12.6 µM

## Cn1cnc([N+](=O)[O-])c1S(=O)(=O)c1ccc(Cl)cc1
  AC50: > 38 µM (inactive)

## COc1cc(NC2CCCCC2O)c2nc(-c3ccc(Cl)cc3)ccc2c1 (stereo not given)
  AC50: 9.05 µM

## COc1ccc(CN(CCC(c2ccccc2)c2ccc(OC(C)C)cc2)C(=O)CCl)cc1OC (stereo not given)
  AC50: 0.569 µM

## COc1ccc(S(=O)(=O)/N=C2\C=C(NS(=O)(=O)c3ccccc3)C(=O)c3ccccc32)cc1
  AC50: 2.95 µM

## COc1ccccc1NC1=C(Cl)C(=O)OC1OC(=O)c1ccco1 (stereo not given)
  AC50: > 38 µM (inactive)

## COc1cccc(-c2[nH]nc3c2C(c2ccsc2)C(C#N)=C(N)O3)c1 (stereo not given)
  AC50: 5.11 µM

## CCCCOP(=O)(OCCCC)C1(NS(=O)(=O)c2ccccc2)C=CC(=O)c2ccccc21 (stereo not given)
  AC50: 9.07 µM

## Cc1ccc(S(=O)(=O)/N=C2/C=C(C3C(=O)CC(C)(C)CC3=O)C(=O)c3ccccc32)cc1
  AC50: > 38 µM (inactive)

## CN(C)CCSc1nnc2[nH]c3ccccc3c2n1
  AC50: > 38 µM (inactive)

## Cc1[nH]n(-c2ccccc2)c(=O)c1C(c1cccc([N+](=O)[O-])c1O)c1c(C)[nH]n(-c2ccccc2)c1=O
  AC50: 1.72 µM

## CC(C)(C)c1cc[n+](C2=C([O-])c3ccccc3C(=O)/C2=N\S(=O)(=O)c2ccccc2)cc1
  AC50: 9.74 µM

## CC(C)c1nnc(NC(=O)c2nc(S(=O)(=O)Cc3ccc(F)cc3)ncc2Cl)s1
  AC50: > 38 µM (inactive)

## COc1ccc(NC(=O)Cn2ncc(Cl)c(Cl)c2=O)cc1S(=O)(=O)N1CCOCC1
  AC50: > 38 µM (inactive)

## COC(=O)/C(=C1/Oc2cc(C)oc(=O)c2S1)C(F)(F)F
  AC50: > 38 µM (inactive)

## O=C(CCl)Nc1cn(-c2ccccc2)nc1-c1ccccc1
  AC50: 7.77 µM

## COc1ccc(C(c2c(C)[nH]n(-c3ccccc3)c2=O)c2c(C)[nH]n(-c3ccccc3)c2=O)cc1OC
  AC50: 1.38 µM

## CCOC(=O)c1c(CSC(=N)N)n(-c2ccccc2)c2cc(Br)c(OC(C)=O)cc12
  AC50: 23.6 µM

## CS(=O)(=O)c1ncc(Cl)c(C(=O)Nc2ccc(N3CCOCC3)cc2)n1
  AC50: > 38 µM (inactive)

## Nc1ccccc1S(=O)(=O)NC1=NCCCCC1
  AC50: > 38 µM (inactive)

## O=C(c1c[nH]c(C(=O)C(Cl)(Cl)Cl)c1)c1ccccc1Br
  AC50: 24.8 µM

## OCCN(CCO)c1ccc(C(c2ccccc2Cl)c2ccc(N(CCO)CCO)cc2Cl)c(Cl)c1
  AC50: 4.12 µM

## O=C1NCN(c2ccccc2)C12CCN(CCCC(c1ccc(F)cc1)c1ccc(F)cc1)CC2
  AC50: 16.5 µM

## CC(C)(C)OC(=O)N1CC=C2C(C#N)=C(N)C(C#N)(C#N)C(c3cccs3)C2C1 (stereo not given)
  AC50: > 12 µM (inactive)

## CCOc1ccc(C2C(C#N)=C(N)Oc3n[nH]c(C)c32)cc1OC(=O)C1CC1 (stereo not given)
  AC50: > 38 µM (inactive)

## CCC1=Nc2cc(C(=O)NCCN3CCCC3)ccc2Sc2ccccc21
  AC50: > 38 µM (inactive)

## CC(=O)Nc1cccc(NC(=O)CSc2ncc(C(=O)Nc3ccccc3)c(=O)n2C)c1
  AC50: > 38 µM (inactive)

## Cc1ccc(SC(=O)c2c(C)noc2-c2cc(C)on2)cc1
  AC50: > 38 µM (inactive)

## COC(=O)Cc1[nH]nc2c1C(c1c[nH]c3ccccc13)C(C#N)=C(N)O2 (stereo not given)
  AC50: > 38 µM (inactive)

## N#CC(c1ccccc1)c1cnccn1 (stereo not given)
  AC50: > 38 µM (inactive)

## O=C(Nc1ccc(N2CCOCC2)cc1)Nc1ccc2nsnc2c1
  AC50: > 38 µM (inactive)

## CCOC(=O)c1c(OCC)[nH]c2c1cc(O)c1ccccc12
  AC50: 32.1 µM

## C#CCOc1ccc(OC)cc1C(c1c(C)[nH][nH]c1=O)c1c(C)[nH][nH]c1=O
  AC50: 17.3 µM

## CC1=NN(c2ccc(Cl)cc2)C(=O)C1
  AC50: 3.71 µM

## Cc1[nH]n(-c2ccccc2)c(=O)c1C(c1cccc([N+](=O)[O-])c1)c1c(C)[nH]n(-c2ccccc2)c1=O
  AC50: 8.53 µM
